Where two headings read alike, the source gives them in different places.
Columns and labels:
CYP1A1 mRNA [1] = experiment: CYP1A1 mRNA induction in primary human hepatocytes (qRT-PCR); conditions: hepatocyte culture Hep220770, 24 h
Description: (§1) Primary human hepatocytes used in this study were obtained from two sources: (i) from multiorgan donor HH52; the use of liver cells of donor HH52 was approved by “Ethical committee at the Faculty Hospital Olomouc”,and it was in accordance with Transplantation law #285/2002 Sb; “Ethical committee at the Faculty Hospital Olomouc” waived the authors from obtaining consent from the next of kin, regarding human hepatocytes obtained from liver donor HH52. (ii) long-term human hepatocytes in monolayer Batch HEP220770 (person), Batch HEP220774 (person) were purchased from Biopredic International (Biopredic International, Rennes, France). Cells were cultured in serum-free medium. Cultures were maintained at 37°C and 5% CO2 in a humidified incubator.
(§2) Total RNA was isolated using TRI Reagent (Molecular Research Center, Cincinnati, OH, USA). cDNA was synthesized from 1000 ng of total RNA using M-MLV Reverse Transcriptase (Finnzymes, Espoo, Finland) at 42°C for 60 min in the presence of random hexamers (Takara, Shiga, Japan). qRT-PCR was carried out using LightCycler FastStart DNA MasterPLUS SYBR Green I (Roche Diagnostic Corporation, Prague, Czech Republic) on a Light Cycler 480 II apparatus (Roche Diagnostic Corporation). CYP1A1, CYP1A2 and GAPDH mRNAs were determined as described previously. Measurements were performed in triplicates. Gene expression was normalized to GAPDH as a housekeeping gene.
We examined a capability of omeprazole and lansoprazole to induce CYP1A1 and CYP1A2 mRNA and protein in primary human hepatocytes, which is a more physiological and metabolically competent cell model. Human hepatocytes were treated for 24 h or 48 h with TCDD (5 nM), vehicle (DMSO; 0.1% V/V) and tested compounds.
Figure 3 Effects of omeprazole and lansoprazole enantiomers on CYP1A1 mRNA, protein and EROD activity in primary human hepatocytes. Panel A and Panel B: RT-PCR analyses of CYP1A1 and CYP1A2 mRNA and western blots of CYP1A1 and CYP1A2 from two different cultures (HH52 and Hep220770) are shown. Human hepatocytes were incubated for 24 h (mRNA analysis) or 48 (protein analysis) with S-OME, R-OME, rac-OME, S-LAN, R-LAN, rac-LAN, TCDD and vehicle (DMSO; 0.1% v/v). RT-PCR data are the mean ± SD from triplicate measurements and are expressed as fold induction over vehicle-treated cells. Data were normalized to GAPDH mRNA levels. Density of bands in western blots was quantified by densitometry and the values are indicated along with respective blots. Panel C: EROD and cytotoxicity: Human hepatocytes (culture Hep220774) were treated for 24 h with S-OME, R-OME, rac-OME, S-LAN, R-LAN, rac-LAN, TCDD and vehicle (DMSO; 0.1% v/v). Upper bar graph: An activity of 7-ethoxyresorufin- O-deethylase (EROD) was measured by fluorescent spectrophotometry with 530 nm excitation and 590 nm emission filters. Treatments were performed in triplicates. The data are expressed as fold induction over the value from control cells. Lower bar graph: A conventional MTT test was performed and absorbance was measured at 540 nm. Treatments were performed in triplicates. The data are expressed as percentage of viability of control cells.

AZ-AHR cells = experiment: MTT cytotoxicity test in AZ-AHR reporter cells; conditions: for cytotoxicity: AZ-AHR cells, 24 h, MTT, concentrations up to 250 µM
Method: (§3) A stably transfected gene reporter cell line AZ-AHR, derived from human hepatoma HepG2 cells transfected with a construct containing several AhR binding sites upstream of a luciferase reporter gene, was used for assessment of AhR transcriptional activity. Cells were incubated for 24 h with tested compounds and/or vehicle (DMSO; 0.1% v/v), in the presence or absence of TCDD (10 nM; AZ-AHR cells) or DEX (100 nM; AZ-GR cells). After the treatments, cells were lysed and luciferase activity was measured. In parallel, cell viability was determined by conventional MTT test.
(§4) In the first series of experiments, the cytotoxicity of tested compounds was assessed in gene reporter cell line AZ-AHR. For this purpose, the cells were incubated for 24 h with S-OME, R-OME, rac-OME, S-LAN, R-LAN and rac-LAN at concentration ranging from 100 pM to 250 µM. The vehicle was DMSO (0.1% v/v). After the treatment, a conventional MTT test was performed.
(§5) Figure 1 Effect of omeprazole and lansoprazole enantiomers on transcriptional activity of aryl hydrocarbon receptor AhR in human gene reporter cell line AZ-AHR. The cells were seeded in 96-well plates and stabilized for 16 h. Panels A and B: Cells were incubated for 24 h with S-OME, R-OME, rac-OME, S-LAN, R-LAN and rac-LAN at concentrations ranging from 10^−10 M to 10^−4 M. The vehicle was DMSO (0.1% v/v). After the treatment, MTT test was performed and absorbance was measured at 540 nm. Treatments were performed in triplicates. The data are the mean from experiments from six different passages of cells and are expressed as a percentage of viability of control cells. The values of IC50 were calculated and are indicated in a figure. Panels C - F: AZ-AHR cells were incubated for 24 h with S-OME, R-OME, rac-OME, S-LAN, R-LAN and rac-LAN at concentrations ranging from 10^−10 M to 10^−4 M in the absence (Panels C and D - agonist mode) or in the presence (Panels E and F- antagonist mode) of TCDD (5 nM). The vehicle was DMSO (0.1% v/v). After the treatments, cells were lysed and luciferase activity was measured. Treatments were performed in triplicates in five (agonist mode) or four (antagonist mode) independent cell passages. […] Data are expressed as a fold induction of luciferase activity over control cells (Panels C and D - agonist mode) or as a percentage of maximal induction attained by TCDD (Panels E and F- antagonist mode).

[2] = MTT cytotoxicity test in AZ-AHR reporter cells; conditions: human
Method: as §3, §4, §5

CYP1A2 protein = CYP1A2 protein induction in primary human hepatocytes (western blot); conditions: 10 µM
Description: as §1
Total protein extracts were prepared from cells cultured on 6-well plates. Cells were washed twice with ice-cold PBS and scraped into 1 ml of PBS. The suspension was centrifuged (4500 RPM/5 min/4°C) and the pellet was resuspended in 150 µl of ice-cold lysis buffer (150 mM NaCl; 10 mM Tris pH 7.2; 0.1% (w/v) SDS; anti-protease cocktail, 1% (v/v) Triton X-100; anti-phosphatase cocktail, 1% (v/v) sodium deoxycholate; 5 mM EDTA). […] Supernatant was collected and the protein content was determined by the Bradford reagent. […] The density of bands was measured by densitometry. […]
Figure 3 Effects of omeprazole and lansoprazole enantiomers on CYP1A1 mRNA, protein and EROD activity in primary human hepatocytes. […] RT-PCR data are the mean ± SD from triplicate measurements and are expressed as fold induction over vehicle-treated cells. […] Density of bands in western blots was quantified by densitometry and the values are indicated along with respective blots. […] Upper bar graph: An activity of 7-ethoxyresorufin- O-deethylase (EROD) was measured by fluorescent spectrophotometry with 530 nm excitation and 590 nm emission filters. […] The data are expressed as fold induction over the value from control cells. Lower bar graph: A conventional MTT test was performed and absorbance was measured at 540 nm. […] The data are expressed as percentage of viability of control cells.

[3] = test system: aryl hydrocarbon receptor AhR; experiment: AhR gene reporter assay, agonist mode; conditions: for AhR agonist efficacy: AZ-AHR cells, 24 h, compared to 5 nM TCDD, calculated at 100 µM compound (stated for omeprazole); for EC50 at 24 h: human
Method: as §3, §5
Gene reporter assays were performed in two different experimental layouts. […] In antagonist mode, cells were incubated with increasing concentrations of tested compounds in combination with model agonist (TCDD; 5 nM), and half-maximal inhibitory concentrations (IC50) were calculated. […] The efficacy was calculated at concentration of compounds of 100 µM and compared to 5 nM TCDD (Figure 1C).

[4] = MTT cytotoxicity test in primary human hepatocytes; conditions: female, human, primary human hepatocytes, culture Hep220774
Method: (§6) Figure 3 Effects of omeprazole and lansoprazole enantiomers on CYP1A1 mRNA, protein and EROD activity in primary human hepatocytes. Panel A and Panel B: RT-PCR analyses of CYP1A1 and CYP1A2 mRNA and western blots of CYP1A1 and CYP1A2 from two different cultures (HH52 and Hep220770) are shown. Human hepatocytes were incubated for 24 h (mRNA analysis) or 48 (protein analysis) with S-OME, R-OME, rac-OME, S-LAN, R-LAN, rac-LAN, TCDD and vehicle (DMSO; 0.1% v/v). RT-PCR data are the mean ± SD from triplicate measurements and are expressed as fold induction over vehicle-treated cells. Data were normalized to GAPDH mRNA levels. Density of bands in western blots was quantified by densitometry and the values are indicated along with respective blots. Panel C: EROD and cytotoxicity: Human hepatocytes (culture Hep220774) were treated for 24 h with S-OME, R-OME, rac-OME, S-LAN, R-LAN, rac-LAN, TCDD and vehicle (DMSO; 0.1% v/v). Upper bar graph: An activity of 7-ethoxyresorufin- O-deethylase (EROD) was measured by fluorescent spectrophotometry with 530 nm excitation and 590 nm emission filters. Treatments were performed in triplicates. The data are expressed as fold induction over the value from control cells. Lower bar graph: A conventional MTT test was performed and absorbance was measured at 540 nm. […] The data are expressed as percentage of viability of control cells. […]

CYP1A1 mRNA [5] = conditions: HepG2, 24 h, 250 µM
Method: as §2
Treatments were performed in triplicates.

CYP1A1 protein = CYP1A1 protein induction in primary human hepatocytes (western blot); conditions: hepatocyte culture Hep220770, 48 h, 100 µM
Description: Primary human hepatocytes used in this study were obtained from two sources: (i) from multiorgan donor HH52; the use of liver cells of donor HH52 was approved by “Ethical committee at the Faculty Hospital Olomouc”,and it was in accordance with Transplantation law #285/2002 Sb; “Ethical committee at the Faculty Hospital Olomouc” waived the authors from obtaining consent from the next of kin, regarding human hepatocytes obtained from liver donor HH52. (ii) long-term human hepatocytes in monolayer Batch HEP220770 (person), Batch HEP220774 (person) were purchased from Biopredic International (Biopredic International, Rennes, France). Cells were cultured in serum-free medium. […]
Total protein extracts were prepared from cells cultured on 6-well plates. […] Supernatant was collected and the protein content was determined by the Bradford reagent. […] The density of bands was measured by densitometry. […]
Figure 3 Effects of omeprazole and lansoprazole enantiomers on CYP1A1 mRNA, protein and EROD activity in primary human hepatocytes. […] RT-PCR data are the mean ± SD from triplicate measurements and are expressed as fold induction over vehicle-treated cells. […] Density of bands in western blots was quantified by densitometry and the values are indicated along with respective blots. […] The data are expressed as fold induction over the value from control cells. […]

[6] = test system: primary human hepatocytes; experiment: MTT cytotoxicity test in primary human hepatocytes; conditions: 100 µM
Method: as §6

| Compound | CYP1A1 mRNA induction (CYP1A1 mRNA [1]; 100 µM) [fold] | cytotoxicity (AZ-AHR cells) | IC50 at 24 h [2] [µM] | CYP1A2 protein induction (CYP1A2 protein; both hepatocyte cultures (HH52, Hep220770), 48 h) | AhR agonist efficacy [3] [%] | EC50 at 24 h [3] [µM] | viability at 24 h, 250 µM [4] [%] | CYP1A1 mRNA induction (CYP1A1 mRNA [1]; 250 µM) [fold] | CYP1A1 mRNA induction (CYP1A1 mRNA [5]) | CYP1A1 protein induction (CYP1A1 protein) | IC50 (AZ-AHR cells) [µM] | CYP1A2 protein induction (CYP1A2 protein; hepatocyte culture HH52, 48 h) | EC50 [3] [µM] | viability of the cells [6] [%] |
| --- | --- | --- | --- | --- | --- | --- | --- | --- | --- | --- | --- | --- | --- | --- |
| COc1ccc2nc([S@@+]([O-])Cc3ncc(C)c(OC)c3C)[nH]c2c1 [S-OME, S-omeprazole] | 736 | not cytotoxic | > 250 | strongly induced | 44.8±11.8 | 22.9 ± 7.9 | 60 | – | – | – | – | – | – | – |
| COc1ccc2[nH]c([S+]([O-])Cc3ncc(C)c(OC)c3C)nc2c1 (racemic) [rac-OME, rac-omeprazole] | 740 | not cytotoxic | > 250 | – | 51.4±30.4 | 30.1 ± 2.2 | – | 706 | approximately 180 fold | strong induction | – | – | – | – |
| Cc1c(OCC(F)(F)F)ccnc1C[S@+]([O-])c1nc2ccccc2[nH]1 [S-LAN, S-lansoprazole] | – | – | – | – | 26.3±8.7 | – | – | – | – | – | 169 | strong induction | 1.9 ± 0.3 | 64 |
